Data as given in patent US7385395B2, “Apparatus for preparing a solution of a hyperpolarized noble gas for NMR and MRI analysis” (priority 1996, dated 2008).
Where two headings read alike, the source gives them in different places.

Assays:
red blood cell (RBC) [1] = conditions: room temperature; Herbst et al. 1989; cited from earlier work
human blood = assay: 129Xe NMR relaxation and signal of xenon delivered to human blood / red blood cell sample in vitro; assay type: in vitro ADME
Protocol: The portion removed accounted for approximately 30% of the total volume of the blood sample. Following removal of a portion of the plasma, xenon saturated saline (1 mL) was injected into the red blood cell (RBC) sample (1 mL) and the ^129Xe NMR was measured. The NMR spectra were measured on a Bruker AM-400 spectrometer.
By using short rf pulses of small tipping angle, ^129Xe NMR spectra were acquired as a function of time after injection of the xenon/saline mixture into the blood. NMR spectra were measured on a Bruker AM-400 spectrometer.
A solution of hyperpolarized xenon in […] ® was prepared in the same manner as described for the saline solution of hyperpolarized xenon, however, the shaker was charged with […] ® rather than saline. […] The […] ® solution was charged with laser polarized ^129Xe and an aliquot (1 mL) of this solution was added to human blood (1 mL). The spectra were obtained on a Bruker AM-400 spectrometer.
A solution of hyperpolarized xenon in FLUOSOL® was prepared in the same manner as described for the saline solution of hyperpolarized xenon, however, the shaker was charged with FLUOSOL® rather than saline. The FLUOSOL® solution was charged with laser polarized ^129Xe and an aliquot (1 mL) of this solution was added to human blood (1 mL). The spectra were obtained on a Bruker AM-400 spectrometer.

[2] = in saline; STP volume of xenon dissolved in 1 liter of liquid at 1 atm gas pressure; cited from earlier work
[3] = rat, in vivo
Protocol: Male rats weighing 200-250 grams were anesthetized by intramuscular injection of ketamine/xylazine/acepromazine (30/3/0.6 mg/kg). Supplemental intramuscular doses were administered as needed to maintain anesthesia. A venous catheter was placed into a tail vein, and the receiver/transmitter surface coil was placed over the heart and liver (FIG. 18). Acquisitions began at start of the injection. Prior to each experiment the rat was placed in lateral recumbency into the magnet. At the conclusion of each experiment, the catheter was removed and the rat was returned to its cage to recover from anesthesia.
The ^129Xe NMR spectra were obtained on a home-built NMR spectrometer interfaced with a Bruker 2.35 T magnet (xenon frequency: 27.68 MHz, bore diameter: 25 cm). […] For the spectroscopy experiment, spectra were obtained every second (pulse angle: ≈20°).
The rats, anesthesia and apparatus were as described in Example 10, above.

red blood cell (RBC) [4] = system: red blood cell (RBC)
Protocol: NMR spectra were measured on a CMX Infinity spectrometer (Chemamagnetics-Otsuka Electronics, Fort Collins, Colo., U.S.A.) at a magnetic field of 4.3 Tesla.
The xenon exchange rate between the extracellular and intracellular compartments of a RBC/saline/plasma sample was measured by selectively inverting the xenon saline/plasma NMR line and observing the recovery of the two signals. The selective inversion was achieved by an amplitude-modulated Gaussian pulse of 1 ms duration centered at the frequency of the saline/plasma signal. […] A field gradient pulse of 1 ms was applied after the inversion pulse to dephase any components of the transverse magnetization. After the inversion pulse, xenon spectra were taken at fixed time intervals using a small tipping angle (20°). Following the addition of the xenon/saline solution into the RBC sample, a delay of 3 seconds before the application of the inversion pulse insured that the xenon/RBC system was well mixed and equilibrated.
[formula] where τRBC and τp1 are residence time constants for xenon in the RBC and saline/plasma, and 1/τ=1/τRBC+1/τp1. S^oRBC and S^op1 are the initial intensities for the RBC and the plasma/saline components, respectively, immediately after the inversion pulse. The effect of the spin-lattice relaxation is neglected since τ<<T1, making S^oRBC+S^op1 a constant during the exchange process.

[5] = 129Xe spin-lattice relaxation time (T1) of hyperpolarized xenon in solution; assay type: physicochemical
Protocol: The design of the shaker used in the dissolution stage for xenon mixing and delivery is illustrated in FIG. 1. The shaker has a small sidearm which can be isolated from the main volume by a stopcock. The shaker is charged with a sample of either normal abundance or isotopically enriched xenon (80% ^129Xe, EG&G Mound, Miamisburg, Ohio, U.S.A.). Laser polarization is performed prior to admitting the xenon to the shaker. Briefly, approximately 5×10^−4 mol of 80. % isotopically enriched ^129Xe was optically pumped in a 30 cc cylindrical glass pumping cell (diameter≈30 mm). Before optical pumping, the cell was cleaned and coated with SURFASIL® (Pierce Chemical Co., Florence, Mass., U.S.A.); the cell was then evacuated to 10^−6 torr and loaded with one drop of melted rubidium metal in a dry nitrogen environment. Optical pumping was performed with a 1.3 W continuous-wave Ti:sapphire laser (794.7 nm) for 20-30 min, and the temperature of the cell was maintained at 60-80° C. by a temperature-controlled nitrogen gas stream. Typically, the apparatus produces xenon polarization levels in the range of 5-10%.
Following laser polarization, the polarized ^129Xe is frozen at liquid nitrogen temperatures in the sidearm in a magnetic field of approximately 50 mT provided by a small permanent magnet. The magnetic field is used in the freezing stage to prevent the decay of xenon polarization. The xenon is sublimated and then admitted into the solution. The small size of the shaker allows for the accumulation of several atmospheres of xenon pressure which aids in increasing the xenon concentration in the solution. During the dissolution procedure, the vessel is vigorously shaken to help dissolve the xenon gas. The resulting xenon solution is extracted with a syringe through a high-pressure rubber septum. In those examples below wherein a solution NMR study is performed on an in vitro sample, the xenon is immediately injected into an NMR tube which contains the sample to be studied.
Solutions of hyperpolarized ^129Xe in partially deuterated benzene (25% C6D5H, 75% C6D6) were prepared as described above for saline solutions of ^129Xe with the exception that the shaker was charged with the benzene solution rather than saline. Typically, 4×10^−4 mol of enriched ^129Xe (80%, EG&G Mound) were used in one experiment at a pressure of 1 atm. ^129Xe NMR was performed at 51 MHz on a Quest 4300 spectrometer (Nalorac Cryogenics, Martinez, Calif., U.S.A.) with a home built probe and a tipping angle of 3°. ^1H NMR was performed at 185 MHz with a home built probe and a tipping angle of 3°.
Hyperpolarized xenon and mixtures of hyperpolarized xenon and cyclodextrins were prepared generally as discussed above. SPINOE signals of 0.05 M cyclodextrin solutions in deuterated DMSO were measured as described above in Example 8.

[6] = selective inversion experiment, 4.3 Tesla

Q: Which “residence time constant in the RBC, τRBC” value (red blood cell (RBC) [1]) does the source give for `O` [water] here?
A: The value was 12 ± 2 ms.

Q: What does the source list for `[Xe]` [xenon]?
A: T1 of the narrow peak (human blood; xenon/FLUOSOL solution 1 mL added to human blood 1 mL, 216 ppm RBC peak): 13 ± 1 s; T1 decay time of the signal at 194 ppm (human blood; xenon/INTRALIPID solution 1 mL added to human blood 1 mL): 16 s; T1 decay time relative to xenon in saline water/blood mixture (human blood; xenon/INTRALIPID solution in blood, 194 ppm signal): approximately 3 fold; Ostwald coefficient [2]: 0.0926; time of maximum xenon signal intensity after start of injection [3]: 7 s; equilibrium distribution of the integral of the two peaks (RBC vs saline/plasma) (red blood cell (RBC) [4]): approximately 50%; ratio of integrated intensities of broad (FLUOSOL) and narrow (RBC) peaks (red blood cell (RBC) [4]): approximately 3; ratio of peak of xenon in INTRALIPID solution to peak of intracellular xenon (red blood cell (RBC) [4]): approximately 6:1; residence time constant in saline/plasma, τpl (red blood cell (RBC) [4]; [6]): 29.1 ± 2 ms; residence time constant in the RBC, τRBC (red blood cell (RBC) [4]; [6]): 20.4 ± 2 ms; exchange time constant τ (1/τ=1/τRBC+1/τpl) (red blood cell (RBC) [4]; selective inversion of saline/plasma line, 4.3 Tesla): 12.0 ± 1 ms; 129Xe T1 ([5]; 0.1 M p-nitrotoluene in deuterated benzene): > 500 s; 129Xe T1 ([5]; 0.1 M α-cyclodextrin solution in deuterated DMSO): 20 s; T1 of xenon ([5]; H2O/saline (0.9% NaCl), 9.4 T): 66 s; xenon T1 ([5]; in INTRALIPID solution): 40 ± 3 s; observed spin-lattice relaxation time of 129Xe in solution ([5]; normal benzene, combination of gas and solution relaxation times): ~200 s; observed spin-lattice relaxation time of 129Xe in solution ([5]; partially deuterated benzene (25% C6D5H, 75% C6D6)): ~1000 s; T1 of xenon ([5]; saline made with D2O): ≈ 1000 s
